Source: US12090132B2, “Tris DBA pharmaceutical composition and its use for treating autoimmune diseases” (National Defense Medical Center, priority 2019, dated 2024)
Entries after “also recorded” stand apart in the source; their conditions may differ.

Experiments:
NF-κB = NF-κB activation in J774A.1 cells; format: cell-based, mouse; conditions: FIG. 1I
ASLN mouse (NZB/WF1) [1] = assay: Renal pathology (PAM, IHC) and autoantibody in ASLN mouse model; format: in vivo; conditions: ASLN mouse kidney
ASLN mouse (NZB/WF1) [2] = assay: Urine protein and renal function in ASLN mouse model; format: in vivo; conditions: 30 mg/kg intraperitoneal
Procedure: (§1) Improve mouse animal model of accelerated aggravated lupus nephritis8-week-old female mouse (NZB/WF1) model is used for experiment in this embodiment, the mice are randomly divided into two groups (treatment group Tris DBA, negative control group Katimin-1), 7 mice per group, the LPS (0.6 mg/kg) is injected into the abdominal cavity of mouse twice a week, the Tris DBA (30 mg/kg) or Katimin-1® is applied by intraperitoneal injection in one week after injection, the mice are sacrificed in Week 3 and Week 5 respectively.
The mouse urine is collected weekly, and the serum is collected when the mice are sacrificed in Week 3 and Week 5, the changes in three biochemical indexes, which are creatinine (Cr), BUN and albumin/creatinine ratio (ACR) in urine, are tested according to the operational manual of commercial reagent kit, so as to analyze the changes in renal function.

ASLN mouse (NZB/WF1) [3] = assay: ROS (superoxide anion) in urine, serum and renal tissue of ASLN mouse; format: in vivo; conditions: Week 3 and Week 5, versus Katimin-1 group
Procedure: as §1
The ASLN mouse urine, serum and renal tissue obtained in Embodiment 2.4 are used to test antioxidant activity. The ROS content is tested according to operational manual of commercial reagent kit, the fluorescence probe dihydroethidium (Dihydroethidium, DHE) reacts with mouse urine and serum. The experimental results are represented as RLU/15 min/ml; the renal tissue is represented as RLU/15 min/mg dry weight.

BMDM cells = assay: Mitochondrion ROS in mouse BMDM; format: cell-based; conditions: LPS 1 μg/mL 5.5 hours, ATP 30 minutes, FIGS. 6D-6E
Procedure: The generation of mitochondrion ROS in the mouse BMDM is tested by using mitosox principle. There are two experimental groups (treatment group Tris DBA, negative control group NAC), reacting with 1 μg/mL LPS and cells for 5.5 hours, treated with ATP for 30 minutes, treated with commercial reagent H2DCFDA for one hour, so as to evaluate the cellular infiltration fluorescence intensity.

[4] = tested on: autophagy factors Atg5, LC3BI/II, p62; assay: Autophagy factor expression in J774A.1 cells (Western Blot); format: cell-based, mouse; conditions: concentration-dependent
ASLN mouse kidney = assay: Protein expression in renal tissue of ASLN mouse; format: in vivo
Procedure: as §1
The renal tissue is thoroughly mixed with RIPA lysis, the expression levels of proteins Atg5, LC3B, p62, NLRP3, caspase-1, IL-1β, p47phox, NQO1, pERK, pJNK and pp38 are tested by gel electrophoresis (SDS-page).

ASLN mouse (NZB/WF1) [5] = assay: T cell subsets in ASLN mouse model (NZB/WF1); format: in vivo; conditions: Week 5, FIG. 3C
Procedure: as §1

MAPK (pERK, pJNK, pp38) = assay: Western Blot of MAPK phosphorylation in J774A.1 cells; format: cell-based, mouse
ASLN mouse (NZB/WF1) [6] = assay: Renal pathology (PAM, IHC) and autoantibody in ASLN mouse model; format: in vivo
Procedure: as §1
When the mice are sacrificed in Week 3 and Week 5, the renal tissue is taken for analysis, the renal cortex tissue is stained by PAM to analyze the content of immunoglobulin G (IgG) and serum complement C3, and the content of F4/80+ macrophages and CD30+ T cells is analyzed by IHC, so as to detect specific antigen molecules in tissue slice and to perform positioning, qualitative and quantitative analyses.

[7] = tested on: CD4 T cells of OVA-TCR transgenic mouse; assay: Antigen-specific T cell proliferation ([3H]-thymidine) and IFN-γ/IL-4, OVA-TCR CD4 T cells cultured with BMDCs; format: cell-based; conditions: FIG. 3L
Procedure: The CD4 T cells of OVA-TCR transgenic mouse and T cell proliferation of antigenic specificity are used to analyze the manifestation of dendritic cell antigen. The OVA323-339 peptide reacts with LPS and LPS+Tris DBA groups for 16 hours respectively. The CD4 T cells abstracted from OVA-TCR transgenic mouse are cultured with BMDCs as per ratios of 1:0, 1:1, 1:2 and 1:4, the T cell proliferation is determined by radioactive [3H]-thymidine, and the processed cell supernatant is used for testing the IFN-γ and IL-4 expression levels in Th1 and Th2 cells according to the operational manual of commercial reagent kit.

NLRP3 inflammasome = NLRP3 inflammasome activation in LPS/ATP-treated J774A.1 cells (ELISA, Western Blot); format: cell-based, mouse
Procedure: Each group was treated with 0, 0.1, 0.5 and 1 μM Tris DBA culture medium for 30 minutes, reacting with 1 μg/ml lipopolysaccharide (LPS) of NLRP3 inflammasome typical activator for 5.5 hours. Finally, it reacted with 5 mM ATP reagent for 30 minutes, the IL-1β and caspase-1 cytokines were tested by ELISA.
The protein expression was analyzed by Western Blot, the cells and Tris DBA were cultured for 1 hour, and cultured with two groups with LPS or without LPS respectively for 5.5 hours to test the expression level of cytokines (NLRP3, caspase-1, pro-caspase-1, pro-IL-1β, pro-IL-1β) in cells. This step refers to the data from prior literature (Chang Y P, et. al. 2015. Resveratrol inhibits NLRP3 inflammasome activation by preserving mitochondrial integrity and augmenting autophagy.

Structure (SMILES): O=C(/C=C/c1ccccc1)/C=C/c1ccccc1.O=C(/C=C/c1ccccc1)/C=C/c1ccccc1.O=C(/C=C/c1ccccc1)/C=C/c1ccccc1.[Pd].[Pd] [Tris DBA]
- NF-κB activation (NF-κB): will not affect; also recorded: fails to inhibit
- content of CD3+T cells (ASLN mouse (NZB/WF1) [1]): can obviously inhibit
- BUN (ASLN mouse (NZB/WF1) [2]; favorable inhibitory effect in Week 3, FIG. 4A): inhibits
- creatinine (ASLN mouse (NZB/WF1) [2]; favorable inhibitory effect in Week 3, FIG. 4B): inhibits
- urine ACR (ASLN mouse (NZB/WF1) [2]; favorable inhibitory effect in Week 3, FIG. 4C): inhibits
- expression level of superoxide anion, kidney (ASLN mouse (NZB/WF1) [3]; FIG. 6A): lower
- expression level of superoxide anion, serum (ASLN mouse (NZB/WF1) [3]; FIG. 6B): lower
- expression level of superoxide anion, urine (ASLN mouse (NZB/WF1) [3]; FIG. 6C): lower
- generation of mitochondria ROS (BMDM cells): can inhibit
- LC3BI/II expression level ([4]; FIG. 2C, 2E): promotes
- p62 expression level ([4]; FIG. 2C, 2F): promotes
- Atg5 expression level ([4]; FIG. 2C-2D): promotes
- NLRP3 (ASLN mouse kidney; FIG. 5B): inhibitory effect
- IL-1β (ASLN mouse kidney; FIG. 5C): inhibitory effect
- Atg5 (ASLN mouse kidney; FIG. 5G): inhibitory effect
- LC3B I/II (ASLN mouse kidney; FIG. 5H): inhibitory effect
- content of p47NADPH (ASLN mouse kidney; FIG. 5J): can inhibit
- manifestation of NQO1 (ASLN mouse kidney; FIG. 5K): can promote
- activity of GPx (ASLN mouse kidney; FIG. 5L): can enhance
- regulated T cells FoxP3+CD25+CD4+ (ASLN mouse (NZB/WF1) [5]): will not inhibit; also recorded: significantly increase
- pERK expression level (MAPK (pERK, pJNK, pp38); FIG. 1A): can inhibit
- pJNK expression level (MAPK (pERK, pJNK, pp38); FIG. 1B): can inhibit
- pp38 expression level (MAPK (pERK, pJNK, pp38); FIG. 1C): can inhibit
- content of immunoglobulin G (IgG) (ASLN mouse (NZB/WF1) [6]; ASLN mouse kidney): can obviously inhibit
- content of serum complement C3 (ASLN mouse (NZB/WF1) [6]; ASLN mouse kidney): can obviously inhibit
- content of F4/80+ macrophages (ASLN mouse (NZB/WF1) [6]; ASLN mouse kidney, IHC): can obviously inhibit
- glomerular cell proliferation (ASLN mouse (NZB/WF1) [6]; ASLN mouse renal tissue, PAM stain, FIG. 4E): obviously inhibits
- glomerular crescent structure proliferation (ASLN mouse (NZB/WF1) [6]; ASLN mouse renal tissue, PAM stain, FIG. 4F): obviously inhibits
- neutrophilic infiltration (ASLN mouse (NZB/WF1) [6]; ASLN mouse renal tissue, PAM stain, FIG. 4G): obviously inhibits
- fibrinoid necrosis (ASLN mouse (NZB/WF1) [6]; ASLN mouse renal tissue, PAM stain, FIG. 4H): obviously inhibits
- renal interstitial inflammation (ASLN mouse (NZB/WF1) [6]; ASLN mouse renal tissue, PAM stain, FIG. 4I): obviously inhibits
- glomerulonephritis (ASLN mouse (NZB/WF1) [6]; ASLN mouse renal tissue, PAM stain, FIG. 4J): obviously inhibits
- anti-dsDNA autoantibody (ASLN mouse (NZB/WF1) [6]; ASLN mouse, FIG. 4O): inhibits
- proliferation of T cells [7]: inhibit
- NLRP3 protein expression level (NLRP3 inflammasome; FIG. 1F): can inhibit
- pro-IL-1β protein expression level (NLRP3 inflammasome; FIG. 1G): can inhibit
- expression level of IL-1β (NLRP3 inflammasome; FIGS. 2J-2K): can inhibit
- cytokines induced by LPS (IL-1β, caspase-1, pro-IL-1β) of cell supernatant (NLRP3 inflammasome; Western Blot, FIG. 2B): can inhibit
- activation of NLRP3 inflammasome (IL-1β induced by LPS) (NLRP3 inflammasome; after treatment with ATP, FIG. 2A): inhibit
